Data: ChEMBL document CHEMBL4765411, “Discovery of 2-(2-aminobenzo[d]thiazol-6-yl) benzo[d]oxazol-5-amine derivatives that regulated HPV relevant cellular pathway and prevented cervical cancer from abnormal proliferation” (Eur J Med Chem, 2020)
Calls of active or inactive are those of the source. The calls are words filed in the database; no cut-off is given here.

Assays:
[1] = Toxicity in BALB/c nude mouse xenografted with human A375 cells assessed as effect on body weight at 50 mg/kg, ig administered for alternative days; format: organism-based; conditions: in vivo, po
HeLa [2] = assay: Induction of cell cycle arrest in human HeLa cells assessed as decrease in accumulation in S phase at 1 uM after 24 hrs by RNAse/propidium iodide staining based flow cytometric analysis; format: functional
[3] = Toxicity in BALB/c nude mouse xenografted with human MCF7 cells assessed as effect on body weight at 50 mg/kg, ig administered for alternative days; format: organism-based; conditions: in vivo, po
HeLa [4] = assay: Down regulation of viral protein E7 in HPV18 infected in human HeLa cells at 5 uM after 24 hrs in presence of MG132 by Western blot analysis; format: functional, cell-based
[5] = biological target: T1, Protein E7 (human papillomavirus 18) (UniProt P06788); assay: Inhibition of viral protein E7 in HPV18 infected in human HeLa cells assessed as reduction in E2F-1 protein […] after 24 hrs by Western blot analysis; format: cell-based; conditions: dose 0.5-10 µM
T1 sequence (whole entry): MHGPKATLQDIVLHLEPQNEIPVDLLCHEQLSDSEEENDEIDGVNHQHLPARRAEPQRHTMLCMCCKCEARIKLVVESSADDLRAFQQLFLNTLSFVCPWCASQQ

[6] = biological target: T1, Protein E7 (human papillomavirus 18); assay: Inhibition of viral protein E7 in HPV18 infected in human HeLa cells assessed as reduction in DNMT1 protein […] after 24 hrs by Western blot analysis; format: cell-based; conditions: dose 0.5-10 µM
HeLa [7] = assay: Induction of apoptosis in human HeLa cells assessed as early apoptotic cells at 1 uM after 24 hrs by Annexin V FITC/propidium iodide staining based flow cytometric analysis (reference value: 0.6%); format: functional
[8] = biological target: T1, Protein E7 (human papillomavirus 18); assay: Inhibition of viral protein E7 in HPV18 infected in human HeLa cells assessed as reduction in phosphorylation of Rb at S780 residue after 24 hrs by Western blot analysis; format: cell-based; conditions: dose 0.5-10 µM
C-33-A = assay: Antiproliferative activity against human C-33-A cells assessed as reduction in cell viability after 72 hrs by SRB assay; format: functional, cell-based
HeLa [9] = assay: Antiproliferative activity against human HeLa cells assessed as reduction in cell viability after 72 hrs by SRB assay; format: functional, cell-based
[10] = Toxicity in BALB/c nude mouse xenografted with human A431 cells assessed as effect on body weight at 50 mg/kg, ig administered for alternative days; format: organism-based; conditions: in vivo, po
HEK293 = assay: Cytotoxicity against human HEK293 cells assessed as reduction in cell viability after 72 hrs by SRB assay; format: cell-based; conditions: HEK293, 72 h
human papillomavirus 18 [11] = assay: Down regulation of viral protein E6 in HPV18 infected in human HeLa cells after 24 hrs by Western blot analysis; format: functional, cell-based; conditions: dose 0.5-10 µM
[12] = biological target: T1, Protein E7 (human papillomavirus 18); assay: Inhibition of viral protein E7 in HPV18 infected in human HeLa cells assessed as reduction in phosphorylation of Rb at S608 residue after 24 hrs by Western blot analysis; format: cell-based; conditions: dose 0.5-10 µM
HeLa [13] = assay: Induction of apoptosis in human HeLa cells assessed as necrotic cells at 1 uM after 24 hrs by Annexin V FITC/propidium iodide staining based flow cytometric analysis (reference value: 1.02%); format: functional
HeLa [14] = assay: Antiproliferative activity against human HeLa cells assessed as growth inhibition at 1 uM viability after 72 hrs by SRB assay relative to control; format: functional; conditions: read-out: GI
[15] = Toxicity in BALB/c nude mouse xenografted with human SKOV-3 cells assessed as effect on body weight at 50 mg/kg, ig administered for alternative days; format: organism-based; conditions: in vivo, po
[16] = Antiproliferative activity against human C4-1 cells assessed as reduction in cell viability after 72 hrs by SRB assay; format: functional, cell-based; conditions: C4-1, 72 h
SK-OV-3 = assay: Antitumour activity against human SKOV-3 cells xenografted in BALB/c nude mouse assessed as reduction in tumour growth at 50 mg/kg, ig administered for alternative days; format: functional, organism-based
[17] = Toxicity in BALB/c nude mouse xenografted with human HeLa cells assessed as effect on body weight at 50 mg/kg, ig administered for alternative days; format: organism-based; conditions: in vivo, po
SiHa = assay: Antiproliferative activity against human SiHa cells assessed as reduction in cell viability after 72 hrs by SRB assay; format: functional, cell-based
MCF7 = assay: Antitumour activity against human MCF7 cells xenografted in BALB/c nude mouse assessed as reduction in tumour growth at 50 mg/kg, ig administered for alternative days; format: functional, organism-based
A-375 = assay: Antitumour activity against human A375 cells xenografted in BALB/c nude mouse assessed as reduction in tumour growth at 50 mg/kg, ig administered for alternative days; format: functional, organism-based
HeLa [18] = assay: Antiproliferative activity against human HeLa cells assessed as growth inhibition at 20 uM viability after 72 hrs by SRB assay relative to control; format: functional; conditions: read-out: GI
human papillomavirus 18 [19] = assay: Down regulation of viral protein E7 in HPV18 infected in human HeLa cells after 24 hrs by Western blot analysis; format: functional, cell-based; conditions: dose 0.5-10 µM
HeLa [20] = assay: Antitumour activity against human HeLa cells xenografted in BALB/c nude mouse assessed as reduction in tumour growth at 50 mg/kg, ig administered for alternative days; format: functional, organism-based
A-431 = assay: Antitumour activity against human A431 cells xenografted in BALB/c nude mouse assessed as reduction in tumour growth at 50 mg/kg, ig administered for alternative days; format: functional, organism-based
HeLa [21] = assay: Induction of apoptosis in human HeLa cells assessed as late apoptotic cells at 1 uM after 24 hrs by Annexin V FITC/propidium iodide staining based flow cytometric analysis (reference value: 0.41%); format: functional
human papillomavirus 18 [22] = assay: Down regulation of viral protein E6 in HPV18 infected in human C4-1 cells after 24 hrs by Western blot analysis; format: functional, cell-based; conditions: dose 0.5-10 µM
human papillomavirus 18 [23] = assay: Down regulation of viral protein E7 in HPV18 infected in human C4-1 cells after 24 hrs by Western blot analysis; format: functional, cell-based; conditions: dose 0.5-10 µM
HeLa [24] = assay: Induction of apoptosis in human HeLa cells assessed as viable cells at 1 uM after 24 hrs by Annexin V FITC/propidium iodide staining based flow cytometric analysis (reference value: 97.97%); format: functional; conditions: read-out: Activity

## Nc1ccc2oc(-c3ccc4nc(N)sc4c3)nc2c1
[1]
  Activity: Non-Toxic
HeLa [2]
  Activity: Active
[3]
  Activity: Non-Toxic
HeLa [4]
  Activity: inactive
[5]
  inhibition: Dose-dependent effect
[6]
  inhibition: Dose-dependent effect
HeLa [7]
  Activity: 8.77%
[8]
  inhibition: Dose-dependent effect
C-33-A
  IC50: 11.9 µM
HeLa [9]
  IC50: 380 nM
[10]
  Activity: Non-Toxic
HEK293
  IC50: > 20 µM
Human papillomavirus 18 [11]
  Activity: Dose-dependent effect
[12]
  inhibition: Dose-dependent effect
HeLa [13]
  Activity: 2.33%
HeLa [14]
  inhibition of growth at 1 µM: 81.7%
[15]
  Activity: Non-Toxic
[16]
  IC50: 440 nM
SK-OV-3
  Activity: inactive
[17]
  Activity: Non-Toxic
SiHa
  IC50: 11.5 µM
MCF7
  Activity: inactive
A-375
  Activity: inactive
HeLa [18]
  inhibition of growth at 20 µM: 81.1%
Human papillomavirus 18 [19]
  Activity: Dose-dependent effect
HeLa [20]
  Activity: Active
A-431
  Activity: inactive
HeLa [21]
  Activity: 3.05%
Human papillomavirus 18 [22]
  Activity: Dose-dependent effect
Human papillomavirus 18 [23]
  Activity: Dose-dependent effect
HeLa [24]
  viability at 1 µM: 85.8%
